Reference: patent US20200102349A1, “PEPTIDE REAGENTS AND METHODS FOR DETECTION AND TARGETING OF DYSPLASIA, EARLY CANCER AND CANCER” (THE REGENTS OF THE UNIVERSITY OF MICHIGAN, priority 2014, published 2020)

Tests used:
[1] = system: colonic dysplasia (flat lesions and polyps); experiment: In vivo NIR fluorescence endoscopy of colon in CPC;Apc mouse; conditions: for mean (±SD) log of the T/B ratio: topical 100 μM, 5 min incubation
Description: (§1) For the in vivo fluorescence images of mouse colon, the T/B ratios for flat dysplasia and polyps were log-transformed to improve normality. The fold-change between classification pairs was estimated using the anti-log of the difference in the log-transformed data. Differences in results between the experimental and control peptides were evaluated on t-test. *P<0.05 was considered significant. Similar methods were used to evaluate the ex vivo fluorescence images of human colonic specimens. The results were plotted on a receiver-operator characteristic (ROC) curve. Co-localization of peptide and antibody binding was evaluated on Pearson's correlation coefficient. All analyses were performed using custom Matlab software (MathWorks Inc).
Mouse imaging studies were performed with approval of the University of Michigan Committee on the Use and Care of Animals (UCUCA). The mice were housed in pathogen-free conditions and supplied water ad libitum under controlled conditions of humidity (50±10%), light (12/12 hour light/dark cycle) and temperature (25° C.). Anesthesia was induced and maintained via a nose cone with inhaled isoflurane mixed with oxygen at a concentration of 2-4% at a flow rate of ˜0.5 L/min. The colon was first rinsed with tap water to remove mucous and debris. White light illumination was used first to identify anatomic landmarks, including polyps, mucosal folds, colonic segment, and distance of endoscope tip from anus, to register images with histology. The Cy5.5-labeled peptides were delivered at a concentration of 100 μM in a volume of 1.5 mL through the 3 Fr instrument channel. After 5 min for incubation, the colon was rinsed 3× with a tap water to remove the unbound peptides. After imaging was completed, the mice were euthanized. The colon was resected, and divided along the longitudinal axis. Flat lesions and polyps were identified on fluorescence, excised perpendicular to the mucosal surface, and processed for histology (H&E). We collected images from mice (n=5) that ranged in age from 7 to 10 months.
Imaging was performed using a small animal endoscope (Karl Storz Veterinary Endoscopy).^39 A xenon light source provides white light illumination via a fluid light cable. A diode-pumped solid state laser (TechnicaLaser Inc) provides excitation at λex=671 nm. The laser beam is expanded to a diameter of 3 mm to fill the aperture of the light cable. The laser power at the tip of the endoscope is <2 mW. The white light images reflect off a dichroic mirror (Semrock Inc, # FF685-Di02-25×36, λc=685 nm), and are focused by an achromatic doublet (Edmund Optics Inc, #32-323). They pass through a neutral density filter (OD 1), and are detected by a color camera (Point Grey Research, # GX-FW-28S5C-C). The fluorescence images pass through the dichroic and a band pass filter (Semrock Inc, # FF01-716/40-25, λC=716 nm, Δλ=40 nm), and are focused on a monochrome camera (Point Grey Research, # GX-FW-28S5M-C). All videos (1932×1452 resolution) are recorded at 15 frames per sec via a firewire connection.
White light and fluorescence videos were exported in avi format with 24 (RGB) and 8 (grayscale) bit digital resolution for the color and fluorescence images, respectively. […] Individual frames were exported using custom Matlab software. On the fluorescence images, 3 regions of interest (ROI, 25×25 pixels) were picked at random within the dysplastic lesion and within adjacent areas of normal-appearing mucosa. The mean intensities within these ROI's on the fluorescence images were measured. The target to-background (T/B) ratio for each image was determined by ratioing the mean intensities of these two ROIs.

[2] = system: HT29, SW480, and SW620 cells; experiment: Flow cytometry binding to colorectal cancer cells; type: cell-based, human; conditions: 5 μM, 1 hour, 4° C.
Description: HT29, SW480, and SW620 cells were grown to confluence and detached with enzyme-free, PBS-based cell dissociation buffer (Gibco, #13151-014) and cell scrapper. The cells were centrifuged at 1500 rpm for 5 min at 4° C., and then blocked with 0.5% BSA in PBS for 30 min on ice and washed with PBS. […] were incubated with 5 μM of either QRH*-Cy5.5 or PEH*-Cy5 for 1 hour at 4° C. with mixing. Cells incubated with PBS alone were used as control. The cells were centrifuged again, washed 3× with cold PBS, and fixed on ice with 4% PFA for 10 min. Flow cytometry was performed with ˜10^4 cells/sample (BD® LSRII, BD Biosciences), and analyzed with the Flowjo software (Tree Star Inc).

[3] = system: HT29 cells; experiment: Apparent dissociation constant on flow cytometry; type: binding, human; conditions: 4° C., 1 hour
Description: We measured the apparent dissociation constant of the peptide to HT29 cells as an assessment of binding affinity. QRH*-Cy5.5 was serially diluted in PBS at concentrations of 0, 10, 25, 50, 75, 100, 125, 150 and 200 nM. HT29 cells (˜10^5) were incubated with QRH*-Cy5.5 at 4° C. for 1 hour, washed with cold PBS, and the mean fluorescence intensities were measured on flow cytometry. The equilibrium dissociation constant kd=1/ka was calculated by performing a least squares fit of the data to the non-linear equation […]. I0 and Imax are the initial and maximum fluorescence intensities, corresponding to no peptide and at saturation, respectively, and [X] represents the concentration of the bound peptide [Thomas et al., Clin Exp Metastasis, 26:105-119 (2009)]. Origin 6.1 data analysis software (OriginLab Corp) was used to calculate kd.

[4] = system: human colonic dysplasia; experiment: Binding of EGFR peptide and antibody to human colonic dysplasia specimens, confocal microscopy; conditions: for log transformed fluorescence intensity, mean (±std): 5 μM, 10 min
Description: as §1
Specimens of human colonic mucosa were obtained from biopsy during routine colonoscopy, frozen in OCT, cut in 10 μm sections, and incubated with QRH*-Cy5.5 (5 μM) in 1×PBS for 10 min at RT. The sections were washed 3× with PBS and incubated overnight at 4° C. with 1:1000 dilution of primary monoclonal rabbit anti-EGFR antibody (Cell Signaling Technology, #4267, isotype IgG). The sections were washed with PBS 3× and incubated with 1:500 dilution of Alexa Fluor 488-labeled secondary goat anti-rabbit antibody (Invitrogen) for 1 hour at RT. The sections were washed with PBS 3×, and fixed with 4% PFA for 10 min. The sections were then washed with PBS 1×, and mounted with ProLong Gold reagent containing DAPI (Invitrogen). Confocal fluorescence images were collected with DAPI, FITC and Cy5.5 filters with 20× objective (Leica TCS SP5 Microsystems). The mean fluorescence intensities from 3 boxes (dimensions of 30×30 μm2) located completely within the surface epithelium of each specimen were measured. […] Adjacent sections were processed for routine histology (H&E) that was reviewed by two gastrointestinal pathologists (SRO and HDA).

[5] = system: high-grade dysplasia in human esophagus; experiment: Binding of QRH*-Cy5.5 to high-grade dysplasia in human esophagus

## QRHKPRE (SEQ ID NO: 1) with Cy5.5 fluorophore attached via a GGGSK linker (SEQ ID NO: 18) on the C-terminus [QRH*-Cy5.5]
[1]; flat lesions (n=15)
  mean fold-difference of T/B, QRH*-Cy5.5 versus PEH*-Cy5.5: 2.05
  mean (±SD) log of the T/B ratio: 0.420±0.103
[1]; polyps (n=15)
  mean fold-difference of T/B, QRH*-Cy5.5 versus PEH*-Cy5.5: 2.43
  mean (±SD) log of the T/B ratio: 0.572±0.181
[1]; topical, distal colon, 5 min
  NIR fluorescence signal from polyp and flat lesions in vivo: increased intensity
[2]
  binding on flow cytometry compared with control peptide: stronger binding to each cell than PEH*-Cy5.5
[3]
  Kd: 50 nM
[4]
  average fold-change for dysplasia compared to normal: 19.4
[4]; dysplasia (n=29)
  log transformed fluorescence intensity, mean (±std): 1.04±0.54
[4]; normal (n=15)
  log transformed fluorescence intensity, mean (±std): −0.248±0.49
[5]
  staining of high-grade dysplasia (HGD): Intense staining
